From PubChem BioAssay AID248 (DTP/NCI, 2004)
Values joined by “and” are separate entries in the source; they are usually repeats but may differ in a detail not shown here. Equal values may be shown once. Inconclusive results and toxic doses are left out. No stated cut-off is given here; in the data, active means T/C of 150% or more; inactive means T/C below 125%.

System: L1210 leukemia ip in BDF1 mice, survival T/C
Experiment: NCI In Vivo Anticancer Drug Screen. Data for tumor model L1210 Leukemia (intraperitoneal) in B6D2F1 (BDF1) mice
Conditions: endpoint: mean survival time, higher = longer survival
Summary of the method: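 Mice bearing the transplanted tumor received compound or vehicle. Survival of the treated group was divided by that of the vehicle-treated control group to give the ratio.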

[1] = dose: 100.0 mg/kg/injection, schedule: Q04DX002 (ip), vehicle: Klucel (hydroxypropylcellulose) (HPC)
[2] = dose: 100.0 mg/kg/injection, schedule: Q04DX003 (ip), vehicle: Klucel (hydroxypropylcellulose) (HPC)
[3] = dose: 200.0 mg/kg/injection, schedule: Q04DX003 (ip), vehicle: Klucel (hydroxypropylcellulose) (HPC)
[4] = dose: 400.0 mg/kg/injection, schedule: Q04DX003 (ip), vehicle: Klucel (hydroxypropylcellulose) (HPC)
[5] = dose: 100.0 mg/kg/injection, schedule: Q01DX009 (ip), vehicle: Klucel (hydroxypropylcellulose) (HPC)
[6] = dose: 200.0 mg/kg/injection, schedule: Q01DX009 (ip), vehicle: Klucel (hydroxypropylcellulose) (HPC)
[7] = dose: 400.0 mg/kg/injection, schedule: Q01DX009 (ip), vehicle: Klucel (hydroxypropylcellulose) (HPC)
[8] = dose: 100.0 mg/kg/injection, schedule: Q04DX003 (ip), vehicle: saline with Tween-80
[9] = dose: 50.0 mg/kg/injection, schedule: Q01DX009 (ip), vehicle: saline
[10] = dose: 100.0 mg/kg/injection, schedule: Q01DX001 (ip), vehicle: carboxymethylcellulose (CMC)
[11] = dose: 100.0 mg/kg/injection, schedule: Q01DX009 (ip), vehicle: saline
[12] = dose: 200.0 mg/kg/injection, schedule: Q01DX001 (ip), vehicle: carboxymethylcellulose (CMC)
[13] = dose: 200.0 mg/kg/injection, schedule: Q04DX003 (ip), vehicle: saline
[14] = dose: 400.0 mg/kg/injection, schedule: Q01DX001 (ip), vehicle: carboxymethylcellulose (CMC)
[15] = dose: 100.0 mg/kg/injection, schedule: Q01DX001 (ip), vehicle: saline
[16] = dose: 100.0 mg/kg/injection, schedule: Q04DX003 (ip), vehicle: saline
[17] = dose: 200.0 mg/kg/injection, schedule: Q01DX001 (ip), vehicle: saline
[18] = dose: 400.0 mg/kg/injection, schedule: Q01DX001 (ip), vehicle: saline
[19] = dose: 5.0 mg/kg/injection, schedule: Q01DX001 (ip), vehicle: saline
[20] = dose: 10.0 mg/kg/injection, schedule: Q01DX001 (ip), vehicle: saline
[21] = dose: 20.0 mg/kg/injection, schedule: Q01DX001 (ip), vehicle: saline
[22] = dose: 100.0 mg/kg/injection, schedule: Q01DX009 (ip), vehicle: saline with Tween-80
[23] = dose: 200.0 mg/kg/injection, schedule: Q01DX009 (ip), vehicle: saline with Tween-80
[24] = dose: 400.0 mg/kg/injection, schedule: Q01DX009 (ip), vehicle: saline with Tween-80
[25] = dose: 100.0 mg/kg/injection, schedule: Q01DX001 (ip), vehicle: Klucel (hydroxypropylcellulose) (HPC)
[26] = dose: 200.0 mg/kg/injection, schedule: Q01DX001 (ip), vehicle: Klucel (hydroxypropylcellulose) (HPC)
[27] = dose: 200.0 mg/kg/injection, schedule: Q04DX003 (ip), vehicle: saline with Tween-80
[28] = dose: 400.0 mg/kg/injection, schedule: Q01DX009 (ip), vehicle: saline
[29] = dose: 200.0 mg/kg/injection, schedule: Q01DX009 (ip), vehicle: saline

Measured: T/C

CC(C)(CCl)c1ccc(C(C)(C)CCl)cc1
inactive: dose: 50.0 mg/kg/injection, schedule: Q04DX002 (ip), vehicle: Klucel (hydroxypropylcellulose) (HPC) 104 % of control | [1] 93 % of control | dose: 200.0 mg/kg/injection, schedule: Q04DX002 (ip), vehicle: Klucel (hydroxypropylcellulose) (HPC) 93 % of control

CCOC(=O)c1ccccc1NC(=O)Nc1cc([N+](=O)[O-])ccc1F
inactive: [2] 88 % of control | [3] 92 % of control | [4] 86 % of control

Nc1cc2c3ccccc3c(F)cc2c2ccccc12
inactive: [5] 106 % of control | [2] 96 % of control | [6] 104 % of control | [3] 93 % of control | [7] 101 % of control | [4] 98 % of control

CCCCCCOCCN1CCN(CCCN2c3ccccc3Sc3ccc(C(F)(F)F)cc32)CC1
inactive: dose: 12.5 mg/kg/injection, schedule: Q04DX003 (ip), vehicle: saline with Tween-80 106 % of control | dose: 25.0 mg/kg/injection, schedule: Q04DX003 (ip), vehicle: saline with Tween-80 101 % of control | dose: 50.0 mg/kg/injection, schedule: Q04DX003 (ip), vehicle: saline with Tween-80 101 % of control | [8] 93 % of control

CCCCCCC(=O)OCCN1CCN(CC/C=C2\c3ccccc3Sc3ccc(C(F)(F)F)cc32)CC1
inactive: dose: 50.0 mg/kg/injection, schedule: Q01DX001 (ip), vehicle: carboxymethylcellulose (CMC) 94 % of control | [9] 123 % of control | [10] 92 % of control | [11] 108 % of control | dose: 132.0 mg/kg/injection, schedule: Q04DX003 (ip), vehicle: saline 103 % of control | [12] 94 % of control | [13] 110 % of control | [14] 94 % of control

COc1ccc(/C=C2\N=C(c3ccccc3)OC2=O)cc1
inactive: [15] 94 % of control | [16] 98 % of control | [17] 95 % of control | [13] 93 % of control | [18] 94 % of control | dose: 400.0 mg/kg/injection, schedule: Q04DX003 (ip), vehicle: saline 93 % of control

C[N+](C)(C)C1(c2ccc(F)cc2)CCCCC1
inactive: [19] 111 % of control | [20] 105 % of control | [21] 111 % of control

ClC(Cl)(Cl)c1cc(C(Cl)(Cl)Cl)nc(NCCCN2CCCC2)n1
inactive: [22] 99 % of control | [23] 96 % of control | [24] 95 % of control

CC(C)(CO)N=Cc1cccc(Br)c1
inactive: [15] 96 % of control | [17] 98 % of control | [18] 98 % of control

CCOC(=O)C(=Cc1ccccc1OC)C(=O)OCC
inactive: [25] 100 % of control | [2] 94 % of control | [26] 111 % of control | [3] 100 % of control | dose: 400.0 mg/kg/injection, schedule: Q01DX001 (ip), vehicle: Klucel (hydroxypropylcellulose) (HPC) 111 % of control | [4] 92 % of control

COc1ccc(OC)c(NC(=O)NCCCl)c1
inactive: [2] 101 % of control | [3] 98 % of control | [4] 87 % of control

O=C(C[n+]1ccccc1Cc1ccccc1)c1ccccc1
inactive: [8] 94 % of control | [16] 102 % of control

Cc1ccc(C(O)CCN2CCOCC2)c(C)c1 (stereo not given)
inactive: [15] 102 % of control | [17] 104 % of control

OCP(CO)CO.[Cl][Hg][Cl]
inactive: dose: 30.0 mg/kg/injection, schedule: Q01DX001 (ip), vehicle: saline 119 % of control

O=P(NC1CCCCC1)(OCc1ccccc1)N(CCCl)CCCl (stereo not given)
inactive: dose: 10.0 mg/kg/injection, schedule: Q01DX Z (ip), vehicle: water 98 % of control | dose: 20.0 mg/kg/injection, schedule: Q01DX Z (ip), vehicle: water 91 % of control | dose: 40.0 mg/kg/injection, schedule: Q01DX Z (ip), vehicle: water 96 % of control | dose: 80.0 mg/kg/injection, schedule: Q01DX009 (ip), vehicle: water 93 % of control | dose: 160.0 mg/kg/injection, schedule: Q01DX009 (ip), vehicle: water 89 % of control

CC(=O)NC(CCSCc1c2ccccc2c(C)c2ccccc12)C(=O)O (stereo not given)
inactive: dose: 50.0 mg/kg/injection, schedule: Q01DX009 (ip), vehicle: saline with Tween-80 86 % of control | [22] 98 % of control | [8] 95 % of control | [27] 95 % of control

O=[N+]([O-])c1cccc(OCCOc2ccc(S(=O)(=O)F)cc2)c1
inactive: [8] 106 % of control | [27] 88 % of control | dose: 400.0 mg/kg/injection, schedule: Q04DX003 (ip), vehicle: saline with Tween-80 93 % of control

O=C(Nc1ccc([N+](=O)[O-])cc1)C(Cl)(Cl)Cl
inactive: dose: 50.0 mg/kg/injection, schedule: Q01DX001 (ip), vehicle: Klucel (hydroxypropylcellulose) (HPC) 94 % of control | [25] 95 % of control | [26] 97 % of control

Cc1cc2cc3cccnn3c2nn1
inactive: dose: 25.0 mg/kg/injection, schedule: Q04DX002 (ip), vehicle: saline 106 % of control | dose: 50.0 mg/kg/injection, schedule: Q04DX002 (ip), vehicle: saline 98 % of control | [1] 118 % of control | dose: 100.0 mg/kg/injection, schedule: Q04DX002 (ip), vehicle: saline 106 % of control

O=C(CCCC(=O)N/N=C/c1cc(Br)ccc1O)N/N=C\c1cc(Br)ccc1O
inactive: dose: 50.0 mg/kg/injection, schedule: Q01DX001 (ip), vehicle: saline 93 % of control | [15] 98 % of control | [11] 89 % of control | [17] 98 % of control | [18] 96 % of control | [28] 92 % of control

Oc1ccc([S+](c2ccc(O)cc2)c2ccc(O)cc2)cc1
inactive: [19] 96 % of control | [20] 96 % of control | [21] 107 % of control | dose: 40.0 mg/kg/injection, schedule: Q01DX001 (ip), vehicle: saline 105 % of control

COc1ccc(S(=O)(=O)Nc2cccc(C(F)(F)F)c2)cc1
inactive: [5] 102 % of control | [6] 102 % of control | [7] 100 % of control

Cc1cc(NC(=O)c2ccccc2)c(C)cc1N
inactive: [10] 92 % of control | [12] 99 % of control | [14] 101 % of control

CN(CCO)C(=O)/C=C/c1ccccc1
inactive: [9] 100 % of control | [11] 94 % of control | [29] 92 % of control

O=C1/C(=C\c2cccc3ccccc23)COC/C1=C/c1cccc2ccccc12
inactive: [11] 93 % of control | [29] 97 % of control | [28] 98 % of control

Cc1cc(C)c(OS(=O)(=O)c2ccc([N+](=O)[O-])cc2)c(C)c1
inactive: [23] 87 % of control | [24] 89 % of control

O=C(Nc1cccc(C2=NCCN2)c1)c1ccc2cc(C(=O)Nc3cccc(C4=NCCN4)c3)ccc2c1
inactive: dose: 7.5 mg/kg/injection, schedule: Q01DX Z (ip), vehicle: carboxymethylcellulose (CMC) 106 % of control | dose: 15.0 mg/kg/injection, schedule: Q01DX Z (ip), vehicle: carboxymethylcellulose (CMC) 104 % of control and 115 % of control | dose: 30.0 mg/kg/injection, schedule: Q01DX Z (ip), vehicle: carboxymethylcellulose (CMC) 104 % of control and 123 % of control | dose: 60.0 mg/kg/injection, schedule: Q01DX Z (ip), vehicle: carboxymethylcellulose (CMC) 119 % of control | dose: 120.0 mg/kg/injection, schedule: Q01DX Z (ip), vehicle: carboxymethylcellulose (CMC) 120 % of control

Cc1ccc(N2CCNCC2)cc1Cl
inactive: dose: 12.5 mg/kg/injection, schedule: Q01DX009 (ip), vehicle: saline 100 % of control | dose: 25.0 mg/kg/injection, schedule: Q01DX009 (ip), vehicle: saline 91 % of control | [9] 102 % of control | dose: 50.0 mg/kg/injection, schedule: Q04DX003 (ip), vehicle: saline 102 % of control
